system: Ovariectomized rats; test: Vaginal keratinization test on ovariectomized rats (Example C.2); type: in vivo; conditions: Rattus norvegicus, po, estradiol undecylate induced keratinization, per os once daily on days 1-3, active dose = 50% of rats show complete suppression, read-out: LAD (lowest active dose)
Excerpt: The property to delay the metabolism of retinoic acid can be evidenced in various in vitro and in vivo experiments. A particular in vitro procedure is described in example C.1 and tests the inhibitory activity of the compounds of formula (I) on the metabolism of retinoic acid in human breast cancer cells. The compounds of the present invention were also effective in suppressing induced vaginal keratinization effects in ovariectomized rats as is described in example C.2.
“Vaginal Keratinization Test on Ovariectomized Rats”
Ovariectomized rats were injected subcutaneously with a sesame oil solution containing 100 μg of estradiol undecylate in a volume of 0.1 ml per 100 g body weight and control animals were injected with sesame oil. On day one, two and three, test animals were treated once daily with a per os dose of the test compound and control animals with the drug vehicle (PEG 200). One day after the last treatment, the animals were sacrificed and their vaginas were processed for histological evaluation according to the method described in J. Pharmacol. Exp. Ther. 261(2), 773–779 (1992). A dose at which 50% of the tested rats show complete suppression of the estradiol undecylate induced keratinization effects is defined as an active dose. Table 23 lists the lowest active dose (LAD in mg/kg) of the compounds of formula (I) which were tested.

Row | SMILES | minimal effective dose
1 | CCC(CC)C(c1ccc(NC(=O)CN2CCN(C)CC2)cc1)n1cncn1 (racemic) [Compound 15, (±)-N-[4-[2-ethyl-1-(1H-1,2,4-triazol-1-yl)butyl]phenyl]-4-methyl-1-piperazineacetamide] | > 2.5 mg/kg
2 | CCC(CC)C(c1ccc(NC(=O)C2CCNCC2)cc1)n1ccnc1.Cl (racemic) [Compound 57, (±)-N-[4-[2-ethyl-1-(1H-imidazol-1-yl)butyl]-phenyl]4-piperidinecarboxamide monohydrochloride] | > 5 mg/kg
3 | CC(=O)Nc1ccc(C(C(C)C)n2ccnc2)cc1 (racemic) [Compound 521, (±)-N-[4-[1-(1H-imidazol-1-yl)-2-methylpropyl]phenyl]acetamide] | 10 mg/kg
4 | CCC(CC)C(c1ccc(NC(=S)Nc2nc3ccccc3s2)cc1)n1ccnc1 (racemic) [Compound 705, (±)-N-(2-benzothiazolyl)-N′-[4-[1-(1H-imidazol-1-yl)-2-ethylbutyl]phenyl]-thiourea] | > 5 mg/kg

same assay, conditions: estradiol undecylate induced keratinization, per os once daily on days 1-3, active dose = 50% of rats show complete suppression

Row | SMILES | LAD (lowest active dose)
5 | CC(C(c1ccc(NC(=O)CCN2CCN(C)CC2)cc1)n1ccnc1)N(C)C (mixture of isomers) [Compound 354] | >5.00 mg/kg
6 | CCCCN(C)C(C)C(c1ccc(NC(C)=O)cc1)n1ccnc1 (mixture of isomers) [Compound 562] | 5.00 mg/kg
7 | CCN(C)C(C)C(c1ccc(NC(C)=O)cc1)n1ccnc1 (mixture of isomers) [Compound 566] | 5.00 mg/kg
8 | CCCN(C)C(C)C(c1ccc(NC(C)=O)cc1)n1ccnc1 (mixture of isomers) [Compound 570] | >5.00 mg/kg
9 | CC(=O)Nc1ccc(C(C(C)N(Cc2ccccc2)Cc2ccccc2)n2ccnc2)cc1 (mixture of isomers) [Compound 572] | >5.00 mg/kg
10 | CCC(CC)C(c1ccc(NC(=O)CN2CCCCC2)cc1)n1ccnc1 (racemic) [Compound 43] | 2.50 mg/kg
11 | CCC(CC)C(c1ccc(NC(=O)CN2CCN(C)CC2)cc1)n1ccnc1 (racemic) [Compound 44] | 2.50 mg/kg
12 | CCC(CC)C(c1ccc(NC(=O)C2CCN(C)CC2)cc1)n1ccnc1 (racemic) [Compound 59] | >2.50 mg/kg
13 | CCC(CC)C(c1ccc(NC(=O)Cc2ccc(OC)c(Cl)c2)cc1)n1cncn1 (racemic) [Compound 74] | 2.50 mg/kg
14 | CCC(CC)C(c1ccc(NC(=O)Cc2c(OC)cccc2OC)cc1)n1ccnc1 (racemic) [Compound 114] | 2.50 mg/kg
15 | CC(C)C(c1ccc(NC(=O)c2cc3ccccc3[nH]2)cc1)n1ccnc1 (racemic) [Compound 178] | >10.00 mg/kg
16 | CN(C)CC(c1ccc(NC(=O)Cc2ccc(Cl)cc2)cc1)n1ccnc1 (racemic) [Compound 375] | >5.00 mg/kg
17 | COc1ccc(CC(=O)Nc2ccc(C(C(C)CO)n3ccnc3)cc2)cc1OC (racemic) [Compound 386, (±)-(A)-3,4-dimethoxy-N-[4-[1-(1H-imidazol-1-yl)-2-(hydroxymethyl)propyl]phenyl]benzeneacetamide] | >2.50 mg/kg
18 | COc1ccc(CC(=O)Nc2ccc(C(C(C)CO)n3ccnc3)cc2)cc1OC (racemic) [Compound 394, (±)-(B)-3,4-dimethoxy-N-[4-[1-(1H-imidazol-1-yl)-2-(hydroxymethyl)propyl]phenyl]-benzeneacetamide] | >2.50 mg/kg
19 | COCC(c1ccc(NC(=O)Cc2ccc(OC)c(OC)c2)cc1)n1ccnc1 (racemic) [Compound 397] | >2.50 mg/kg
20 | CNC(C)C(c1ccc(NC(=O)Cc2ccc(OC)c(OC)c2)cc1)n1ccnc1 (racemic) [Compound 400, (±)-(A)-3,4-dimethoxy-N-[4-[1-(1H-imidazol-1-yl)-2-(methylamino)propyl]phenyl]benzeneacetamide] | >2.50 mg/kg
21 | COc1ccc(CC(=O)Nc2ccc(C(C(C)O)n3ccnc3)cc2)cc1OC.O (racemic) [Compound 402, (±)-(B)-3,4-dimethoxy-N-[4-[2-hydroxy-1-(1H-imidazol-1-yl)propyl]phenyl]benzeneacetamide monohydrate] | >5.00 mg/kg
22 | Cc1ccc(CC(=O)Nc2ccc(C(CN(C)C)n3ccnc3)cc2)cc1C (racemic) [Compound 433] | >2.50 mg/kg
23 | COc1ccc(C(=O)Nc2ccc(C(CN(C)C)n3ccnc3)cc2)cc1OC (racemic) [Compound 434] | >2.50 mg/kg
24 | CN(C)CC(c1ccc(NC(=O)N2CCN(C)CC2)cc1)n1ccnc1 (racemic) [Compound 436] | >5.00 mg/kg
25 | CC(=O)Nc1ccc(C(C=CC(C)C)n2ccnc2)cc1 (racemic) [Compound 532] | >10.00 mg/kg
26 | CC(=O)Nc1ccc(C(C(C)N(C)C)n2cncn2)cc1 (racemic) [Compound 631, (±)-(B)-N-[4-[2-(dimethylamino)-1-(1H-1,2,4-triazol-1-yl)propyl]phenyl]acetamide] | >2.50 mg/kg
27 | CCCC(C)C(c1ccc(NC(=O)Cc2ccc(Cl)cc2)cc1)n1cncn1 (racemic) [Compound 638] | >2.50 mg/kg

Row | SMILES | LAD (lowest active dose)
28 | CCC(CC)C(c1ccc(NC(=S)Nc2nc3ccccc3s2)cc1)n1cncn1 (racemic) [Compound 706] | 5.00 mg/kg
29 | O=C(Nc1ccc(C(c2cccc(C(F)(F)F)c2)n2ccnc2)cc1)Nc1ccccc1F (racemic) [Compound 714] | 2.50 mg/kg
30 | COc1ccc(NC(=O)Nc2ccc(C(c3cccc(C(F)(F)F)c3)n3ccnc3)cc2)cc1 (racemic) [Compound 716] | >2.50 mg/kg
31 | COc1ccc(NC(=O)Nc2ccc(C(CN(C)C)n3ccnc3)cc2)cc1OC (racemic) [Compound 721] | >2.50 mg/kg
32 | CCCC(c1ccc(NC(=O)Cc2ccc(Cl)cc2)cc1)(C(CC)CC)n1ccnc1 (racemic) [Compound 766] | >2.50 mg/kg
33 | CCC(CC)C(CC)(c1ccc(NC(=O)Cc2ccc(Cl)cc2)cc1)n1ccnc1 (racemic) [Compound 768] | >2.50 mg/kg
34 | CCC(CC)C(c1ccc(NC(=O)C(O)c2ccc(Cl)cc2)cc1)n1cncn1 (single isomer, unassigned) [Compound 20] | 2.50 mg/kg
35 | CCOc1ccc(CCC(=O)Nc2ccc(C(C(CC)CC)n3ccnc3)cc2)cc1 (single isomer, unassigned) [Compound 62] | >5.00 mg/kg
36 | COc1ccc(CC(=O)Nc2ccc(C(C(C)N(C)C)n3cncn3)cc2)cc1OC (single isomer, unassigned) [Compound 278] | 2.50 mg/kg
37 | COc1ccc(CC(=O)Nc2ccc(C(C(C)N(C)C)n3cncn3)cc2)cc1Cl (single isomer, unassigned) [Compound 279] | 2.50 mg/kg
38 | Cc1ccc(CC(=O)Nc2ccc(C(C(C)N(C)C)n3cncn3)cc2)cc1C (single isomer, unassigned) [Compound 280] | >2.50 mg/kg
39 | COc1ccc(CC(=O)Nc2ccc(C(C(C)N(C)C)n3cncn3)cc2)cc1C (single isomer, unassigned) [Compound 281] | >2.50 mg/kg
40 | CC(C(c1ccc(NC(=O)Cc2ccc(Cl)cc2)cc1)n1cncn1)N(C)C (single isomer, unassigned) [Compound 283] | 2.50 mg/kg
41 | CC(C(c1ccc(NC(=O)Cc2ccc(O)c(Cl)c2)cc1)n1cncn1)N(C)C (single isomer, unassigned) [Compound 284] | 2.50 mg/kg
42 | CCOc1ccc(CC(=O)Nc2ccc(C(C(C)N(C)C)n3cncn3)cc2)cc1OCC (single isomer, unassigned) [Compound 285] | >2.50 mg/kg
43 | COc1ccc(CC(=O)Nc2ccc(C(C(C)N(C)C)n3cncn3)cc2)cc1C (single isomer, unassigned) [Compound 286] | >2.50 mg/kg
44 | COc1ccc(CC(=O)Nc2ccc(C(C(C)N(C)C)n3cncn3)cc2)cc1OC (single isomer, unassigned) [Compound 287] | >2.50 mg/kg
45 | COc1cc(CC(=O)Nc2ccc(C(C(C)N(C)C)n3cncn3)cc2)ccc1C (single isomer, unassigned) [Compound 294] | >2.50 mg/kg
46 | COc1cc(CC(=O)Nc2ccc(C(C(C)N(C)C)n3cncn3)cc2)ccc1C (single isomer, unassigned) [Compound 295] | >2.50 mg/kg
47 | CCOc1ccc(CC(=O)Nc2ccc(C(C(C)N(C)C)n3ccnc3)cc2)cc1OCC (single isomer, unassigned) [Compound 300] | >2.50 mg/kg
48 | COc1cc(CC(=O)Nc2ccc(C(C(C)N(C)C)n3ccnc3)cc2)cc(OC)c1OC (single isomer, unassigned) [Compound 302] | >2.50 mg/kg
49 | COc1ccc(CC(=O)Nc2ccc(C(C(C)N(C)C)n3ccnc3)cc2)cc1Cl (single isomer, unassigned) [Compound 304] | >2.50 mg/kg
50 | Cc1cc(CC(=O)Nc2ccc(C(C(C)N(C)C)n3ccnc3)cc2)cc(C)c1C (single isomer, unassigned) [Compound 308] | >2.50 mg/kg

Source: US7179825B2, “Retinoic acid mimetic anilides” (Janssen Pharmaceutica N.V., priority 1997, dated 2007)
